{"source": "patent US9993494B2", "about": "“Compositions and methods for treating fibrotic disease” (eFFECTOR Therapeutics, Inc., priority 2014, dated 2018)", "key": {"[1]": {"tested_on": "normal human lung fibroblasts", "assay": "Western blot of α-smooth muscle actin (α-SMA) in TGFβ-treated fibroblasts", "assay_type": "cell-based", "details": "fibroblasts treated with TGFβ, 24 hours, western blot", "description": "(§1) Briefly, normal human lung fibroblasts (Lonza #CC-2512; cell passage numbers 2 through 5 were used for all experiments) were seeded (Day 0) and cultured in Dulbecco's modified Eagle medium (DMEM) supplemented with 10% fetal bovine serum (FBS), penicillin, streptomycin and glutamax (Invitrogen) at 37° C. in a humidified incubator with 5% CO2 overnight. On Day 1, cells were harvested, washed with phosphate buffered saline (PBS), and then incubated for 48 hours in fresh serum-free DMEM supplemented with penicillin, streptomycin, and glutamax.\n(§2) After this 24 hour incubation, procollagen type 1 levels were measured by collecting culture media, centrifuging to pellet cellular debris, and stored at −80° C. Procollagen Type 1 C-Peptide (PIPC) was quantified using the (PIP) EIA kit (Clontech, Cat. No. MK101) according to manufacturer's instructions. The TGFβ-treated fibroblasts of this example were examined by ribosomal profiling (about 6×10^6 cells/10 cm plate) and western blot analysis (about 1×10^6 cells/well of a 6-well plate).\nTGFβ-dependent activation of the PI3K/Akt/mTOR and ERK pathways were also examined by western blot analysis (about 1×10^6 cells/well from a 6-well plate). Briefly, cells were washed with PBS and lysed in 1× cell lysis buffer (Cell Signaling Technology, Inc., Danvers, Mass.) for 15 minutes at 4° C. Lysates were briefly sonicated, clarified by centrifugation for 15 minutes at 14,000 rpm, and then supernatants were collected. Protein concentration in the soluble fraction was determined by BCA protein assay (Thermo Scientific, Rockford, Ill.). Samples of protein (20 μg) were resolved on 4-20% Bis-Tris gradient gel (Invitrogen, Carlsbad, Calif.) and transferred to nitrocellulose membrane. The resulting blots were blocked for 1 hour at room temperature with Odyssey blocking solution (LI-COR) and then incubated with primary antibodies at 4° C. overnight. The following day, each blot was washed three times for 10 minutes in TBST, and then incubated with goat anti-rabbit fluorescent conjugated secondary antibody (IRDye 800 CW at 1:20,000; LI-COR) for 1 hour at room temperature. The blots were washed and scanned, and then specific proteins were detected by using the LI-COR Odyssey infrared imager. The following antibodies were used at 1:1000 dilution: anti-α-actin (Sigma #A2547), anti-phospho-4EBP(Ser65), anti-phospho-rpS6(Ser235/236)(#4858), anti-phospho-ERK1/2(Thr202/Tyr204)(#4370), anti-phospho-p70S6K(Thr421/Ser424)(#9204), anti-phospho-pAKT(Ser473), anti-phospho-MNK(Thr197/202), and anti-β-actin (#4970). Unless otherwise indicated, the antibodies were from Cell Signaling Technology, Inc. (Danvers, Mass.).\nas §1, with “(Lonza;” for “(Lonza #CC-2512;”, “CO2 conditions” for “CO2”, “glutamax. On Day 3, cells were harvested, resuspended in fresh serum-free DMEM containing silvestrol (1, 5, 10, 75, 100, 500, or 1000 nM) and 10 ng/ml TGFβ, and cultured for 24 hours. Controls included untreated cells and cells treated with only TGFβ.” for “glutamax.”\n(§3) After this 24 hour incubation, procollagen type 1 levels were measured by collecting culture media, centrifuging to pellet cellular debris, and stored at −80° C. Procollagen Type 1 C-Peptide (PIPC) was quantified using the (PIP) EIA kit (Clontech) according to manufacturer's instructions. The TGFβ-treated fibroblasts of this example are examined by ribosomal profiling (about 6×10^6 cells/10 cm plate) and western blot analysis (about 1×10^6 cells/well of a 6-well plate)."}, "[2]": {"tested_on": "normal human lung fibroblasts", "assay": "Procollagen Type 1 C-Peptide (PIPC) EIA in culture media of TGFβ-treated fibroblasts", "assay_type": "cell-based", "details": "fibroblasts treated with TGFβ, 24 hours, procollagen ELISA", "description": "as §1, §2\nas §1, with “(Lonza;” for “(Lonza #CC-2512;”, “CO2 conditions” for “CO2”, “glutamax. On Day 3, cells were harvested, resuspended in fresh serum-free DMEM containing silvestrol (1, 5, 10, 75, 100, 500, or 1000 nM) and 10 ng/ml TGFβ, and cultured for 24 hours. Controls included untreated cells and cells treated with only TGFβ.” for “glutamax.”\nas §3\nThe levels of α-SMA and procollagen type 1, markers of fibroblast transdifferentiation into myofibroblasts and a surrogate for fibrotic disease progression, were measured after a 24 hour incubation of fibroblasts in the presence or absence of TGFβ sieIF4A1 or siCont. The knockdown efficiency was determined by quantitating the eIF4A mRNA level by qPCR (data not shown) and assessing the protein level by western analysis (see FIG. 11)."}}, "data": [{"smiles": "CC(C)CCN1c2nc(Nc3cc(F)c(O)c(F)c3)ncc2N(C)C(=O)C1C", "note": "(centres unmarked) [BI-D1870, 2-[(3,5-Difluoro-4-hydroxyphenyl)amino]-7,8-dihydro-5,7-dimethyl-8-(3-methylbutyl)-6(5H)-pteridone]", "values": [{"measurement": "% Renormalization α-SMA", "setting": "[1]", "value": "++ (++ = 30-60%)"}, {"measurement": "% Renormalization Collagen", "setting": "[2]", "value": "+++ (+++ = >60%)"}]}, {"smiles": "O=C(Nc1ccc(Cl)cc1)Nc1ccc2nonc2c1", "note": "[BOCPU, 1-(benzo[c][1,2,5]oxadiazol-5-yl)-3-(4-chlorophenyl)urea]", "values": [{"measurement": "% Renormalization α-SMA", "setting": "[1]", "value": "+++ (+++ = >60%)"}]}, {"smiles": "Nc1nccc2c1ncn2[C@@H]1O[C@H](CO)[C@@H](O)[C@H]1O", "note": "[DZA, 3-deaza-adenosine]", "values": [{"measurement": "% Renormalization α-SMA", "setting": "[1]", "value": "+ (+ = 0-30%)"}, {"measurement": "% Renormalization Collagen", "setting": "[2]", "value": "+ (+ = 0-30%)"}]}, {"smiles": "N=C(N)NCCCCCCCN", "note": "[GC7, N1-guanyl-1,7-diaminoheptane]", "values": [{"measurement": "% Renormalization α-SMA", "setting": "[1]", "value": "+ (+ = 0-30%)"}, {"measurement": "% Renormalization Collagen", "setting": "[2]", "value": "+ (+ = 0-30%)"}]}, {"smiles": "COC(=O)c1ccc2c(c1)NC(=O)/C2=C(\\Nc1ccc(N(C)C(=O)CN2CCN(C)CC2)cc1)c1ccccc1", "note": "[Nintedanib]", "values": [{"measurement": "% Renormalization α-SMA", "setting": "[1]", "value": "+++ (+++ = >60%)"}, {"measurement": "% Renormalization Collagen", "setting": "[2]", "value": "+++ (+++ = >60%)"}]}, {"smiles": "CO[C@H]1C[C@@H]2CC[C@@H](C)[C@@](O)(O2)C(=O)C(=O)N2CCCC[C@H]2C(=O)O[C@H]([C@H](C)C[C@@H]2CC[C@@H](O)[C@H](OC)C2)CC(=O)[C@H](C)/C=C(\\C)[C@@H](O)[C@@H](OC)C(=O)[C@H](C)C[C@H](C)/C=C/C=C/C=C/1C", "note": "[Rapamycin]", "values": [{"measurement": "% Renormalization α-SMA", "setting": "[1]", "value": "+ (+ = 0-30%)"}, {"measurement": "% Renormalization Collagen", "setting": "[2]", "value": "++ (++ = 30-60%)"}]}]}
